# Experimental data taken from patent US10412965B2, “Use of the antifungal ilicicolin H in agriculture” (AGROBIOLOGICS, LLC, priority 2015, dated 2019).
# Legend:
# [1] = tested on: Phytophthora infestans; assay type: in vivo; details: 200 ppm
# [2] = tested on: HeLa cells; details: cited from earlier work
# [3] = tested on: Pyrenophora teres; assay: Leaf disk test at different concentrations, barley; assay type: in vivo; details: preventative, disease control relative to untreated check
# [4] = tested on: Glomerella lagenarium (Colletotrichum lagenarium); assay: Liquid-culture fungal growth inhibition test; assay type: cell-based
# [5] = tested on: Mycosphaerella arachidis (Cercospora arachidicola); assay: Liquid-culture fungal growth inhibition test; assay type: cell-based
# [6] = tested on: Monographella nivalis (Microdochium nivale); assay: Liquid-culture fungal growth inhibition test; assay type: cell-based
# [7] = tested on: Uromyces viciae-fabae; assay type: in vivo; details: 100 ppm
# [8] = tested on: Pythium dissimile; assay type: cell-based; details: 20 ppm
# [9] = tested on: Gibberella zeae; assay type: cell-based; details: 20 ppm
# [10] = tested on: Puccinia recondita; assay: Leaf disk test at different concentrations, wheat; assay type: in vivo; details: for Leaf-piece test rates (20 ppm), efficacy / Leaf-piece test rates (60 ppm), efficacy / Leaf-piece test rates (200 ppm), efficacy: wheat, disease control relative to untreated check
# [11] = tested on: Magnaporthe grisea (Pyricularia oryzae); assay type: in vivo; details: rice, preventative, disease control relative to untreated check
# [12] = tested on: Gaeumannomyces graminis; assay: Liquid-culture fungal growth inhibition test; assay type: cell-based
# [13] = tested on: Plasmopara viticola; assay: Leaf disk test at different concentrations, grapevine; assay type: in vivo; details: preventative, disease control relative to untreated check
# [14] = tested on: Pythium ultimum; assay: Liquid-culture fungal growth inhibition test; assay type: cell-based; details: antifungal activity relative to untreated check, photometric, 2-7 days
# [15] = tested on: Phytophthora infestans; assay type: in vivo; details: tomato, preventative, disease control relative to untreated check
# [16] = tested on: Botryotinia fuckeliana (Botrytis cinerea); assay: Liquid-culture fungal growth inhibition test; assay type: cell-based
# [17] = tested on: Fusarium culmorum; assay: Liquid-culture fungal growth inhibition test; assay type: cell-based; details: antifungal activity relative to untreated check, photometric, 2-7 days
# Description: Suspensions of mycelial fragments or conidia of a fungal species, prepared either freshly from liquid cultures of the fungus or from cryogenic storage, were directly mixed into nutrient broth. DMSO solutions of Ilicicolin H (max. 10 mg/ml) were diluted with 0.025% Tween 20 by a factor of 50, and 10μ L of this solution was pipetted into a microtitre plate (96-well format). The nutrient broth containing the fungal spores/mycelia fragments was then added to give a final concentration of Ilicicolin H. The test plates were incubated in the dark at 24° C. and 96% relative humidity. The inhibition of fungal growth was determined photometrically after 2-7 days, depending on the pathosystem, and percent antifungal activity relative to the untreated check was calculated.
# [18] = tested on: Thanatephorus cucumeris (Rhizoctonia solani); assay: Liquid-culture fungal growth inhibition test; assay type: cell-based
# [19] = tested on: mice; details: cited from earlier work
# [20] = tested on: Alternaria solani; assay type: cell-based; details: 20 ppm
# [21] = tested on: Blumeria graminis f. sp. tritici (Erysiphe graminis); assay: Leaf disk test at different concentrations, wheat; assay type: in vivo; details: preventative, disease control relative to untreated check
# [22] = tested on: Botryotinia fuckeliana; assay type: cell-based; details: 20 ppm
# [23] = tested on: Alternaria solani; assay: Leaf disk test at different concentrations, tomato; assay type: in vivo; details: preventative, disease control relative to untreated check
# [24] = tested on: Zymoseptoria tritici; assay type: in vivo; details: 100 ppm
# [25] = tested on: Phaeosphaeria nodorum (Septoria nodorum); assay: Leaf disk test at different concentrations, wheat; assay type: in vivo; details: preventative, disease control relative to untreated check
# [26] = tested on: Zymoseptoria tritici; assay: Liquid-culture fungal growth inhibition test; assay type: cell-based
# [27] = tested on: Sclerotinia sclerotiorum; assay: Liquid-culture fungal growth inhibition test; assay type: cell-based
# [28] = 0.2 ppm, antifungal activity relative to untreated check, photometric, 2-7 days
# [29] = 2 ppm, antifungal activity relative to untreated check, photometric, 2-7 days
# [30] = 20 ppm, antifungal activity relative to untreated check, photometric, 2-7 days
compound,measurement,setting,value
C/C=C/[C@H]1C(C(=O)c2c(O)c(-c3ccc(O)cc3)c[nH]c2=O)C=C(C)[C@H]2CC[C@H](C)C[C@@H]21 (stereo partly shown) [Ilicicolin H],activity in leaf-piece assay,[1]; tomato,active
same,Disease control efficacy (average of two repeat experiments),"[1]; tomato leaf piece, applied prior to inoculation, visual 3 band score",99
same,ED50 (cytotoxicity),[2],2 µg/mL
same,"Leaf-piece test rates (20 ppm), efficacy",[3]; 20 ppm,0%
same,"Leaf-piece test rates (60 ppm), efficacy",[3]; 60 ppm,0%
same,"Leaf-piece test rates (200 ppm), efficacy",[3]; 200 ppm,0%
same,activity in liquid-culture test,[4],demonstrated activity
same,"Liquid-culture test rates (0.2 ppm), efficacy",[4]; [28],0%
same,"Liquid-culture test rates (2 ppm), efficacy",[4]; [29],50%
same,"Liquid-culture test rates (20 ppm), efficacy",[4]; [30],100%
same,activity in liquid-culture test,[5],demonstrated activity
same,"Liquid-culture test rates (0.2 ppm), efficacy",[5]; [28],0%
same,"Liquid-culture test rates (2 ppm), efficacy",[5]; [29],100%
same,"Liquid-culture test rates (20 ppm), efficacy",[5]; [30],100%
same,activity in liquid-culture test,[6],demonstrated activity
same,"Liquid-culture test rates (0.2 ppm), efficacy",[6]; [28],0%
same,"Liquid-culture test rates (2 ppm), efficacy",[6]; [29],100%
same,"Liquid-culture test rates (20 ppm), efficacy",[6]; [30],100%
same,Disease control efficacy (average of two repeat experiments),[7],49
same,activity in leaf-piece assay,[7],active in one rep
same,Disease control efficacy (average of two repeat experiments),[8],0
same,activity in mycelial growth test,[8],not active
same,activity in mycelial growth test,[9],not active
same,Disease control efficacy (average of two repeat experiments),"[9]; artificial media, visual 3 band score, 4 to 14 days after inoculation",0
same,"Leaf-piece test rates (20 ppm), efficacy",[10]; curative,0%
same,"Leaf-piece test rates (20 ppm), efficacy",[10]; preventative,0%
same,"Leaf-piece test rates (60 ppm), efficacy",[10]; curative,0%
same,"Leaf-piece test rates (60 ppm), efficacy",[10]; preventative,50%
same,"Leaf-piece test rates (200 ppm), efficacy",[10]; curative,0%
same,"Leaf-piece test rates (200 ppm), efficacy",[10]; preventative,90%
same,activity in leaf disk test,[10]; wheat leaf disks,demonstrated activity
same,"Leaf-piece test rates (20 ppm), efficacy",[11]; 20 ppm,0%
same,"Leaf-piece test rates (60 ppm), efficacy",[11]; 60 ppm,0%
same,"Leaf-piece test rates (200 ppm), efficacy",[11]; 200 ppm,0%
same,activity in liquid-culture test,[12],demonstrated activity
same,"Liquid-culture test rates (0.2 ppm), efficacy",[12]; [28],0%
same,"Liquid-culture test rates (2 ppm), efficacy",[12]; [29],90%
same,"Liquid-culture test rates (20 ppm), efficacy",[12]; [30],100%
same,"Leaf-piece test rates (20 ppm), efficacy",[13]; 20 ppm,0%
same,"Leaf-piece test rates (60 ppm), efficacy",[13]; 60 ppm,0%
same,"Leaf-piece test rates (200 ppm), efficacy",[13]; 200 ppm,0%
same,"Liquid-culture test rates (0.2 ppm), efficacy",[14]; 0.2 ppm,0%
same,"Liquid-culture test rates (2 ppm), efficacy",[14]; 2 ppm,0%
same,"Liquid-culture test rates (20 ppm), efficacy",[14]; 20 ppm,0%
same,"Leaf-piece test rates (20 ppm), efficacy",[15]; 20 ppm,0%
same,"Leaf-piece test rates (60 ppm), efficacy",[15]; 60 ppm,0%
same,"Leaf-piece test rates (200 ppm), efficacy",[15]; 200 ppm,0%
same,activity in liquid-culture test,[16],demonstrated activity
same,"Liquid-culture test rates (0.2 ppm), efficacy",[16]; [28],0%
same,"Liquid-culture test rates (2 ppm), efficacy",[16]; [29],70%
same,"Liquid-culture test rates (20 ppm), efficacy",[16]; [30],100%
same,"Liquid-culture test rates (0.2 ppm), efficacy",[17]; 0.2 ppm,0%
same,"Liquid-culture test rates (2 ppm), efficacy",[17]; 2 ppm,0%
same,"Liquid-culture test rates (20 ppm), efficacy",[17]; 20 ppm,0%
same,activity in liquid-culture test,[18],demonstrated activity
same,"Liquid-culture test rates (0.2 ppm), efficacy",[18]; [28],0%
same,"Liquid-culture test rates (2 ppm), efficacy",[18]; [29],50%
same,"Liquid-culture test rates (20 ppm), efficacy",[18]; [30],70%
same,acute toxicity,[19],low acute toxicity
same,Disease control efficacy (average of two repeat experiments),[20],0
same,activity in mycelial growth test,[20],not active
same,"Leaf-piece test rates (20 ppm), efficacy",[21]; 20 ppm,0%
same,"Leaf-piece test rates (60 ppm), efficacy",[21]; 60 ppm,0%
same,"Leaf-piece test rates (200 ppm), efficacy",[21]; 200 ppm,0%
same,Disease control efficacy (average of two repeat experiments),[22],99
same,activity in mycelial growth test,[22],active
same,"Leaf-piece test rates (20 ppm), efficacy",[23]; 20 ppm,0%
same,"Leaf-piece test rates (60 ppm), efficacy",[23]; 60 ppm,0%
same,"Leaf-piece test rates (200 ppm), efficacy",[23]; 200 ppm,0%
same,Disease control efficacy (average of two repeat experiments),[24],99
same,activity in leaf-piece assay,[24],active
same,"Leaf-piece test rates (20 ppm), efficacy",[25]; 20 ppm,0%
same,"Leaf-piece test rates (60 ppm), efficacy",[25]; 60 ppm,0%
same,"Leaf-piece test rates (200 ppm), efficacy",[25]; 200 ppm,0%
same,activity in liquid-culture test,[26],demonstrated activity
same,"Liquid-culture test rates (0.2 ppm), efficacy",[26]; [28],90%
same,"Liquid-culture test rates (2 ppm), efficacy",[26]; [29],100%
same,"Liquid-culture test rates (20 ppm), efficacy",[26]; [30],100%
same,activity in liquid-culture test,[27],demonstrated activity
same,"Liquid-culture test rates (0.2 ppm), efficacy",[27]; [28],0%
same,"Liquid-culture test rates (2 ppm), efficacy",[27]; [29],20%
same,"Liquid-culture test rates (20 ppm), efficacy",[27]; [30],50%
